For the test, the system named is SRS-A induced contraction of guinea pig ileum. Kind of test: inhibition of SRS-A induced contraction of guinea pig ileum (SRS-A antagonist activity). The class given is cell-based. Conditions: Cavia porcellus, 0.25 h, partially purified SRS-A from guinea pig lung, 40 μg/ml, 15 minutes incubation, read-out: percent antagonism of SRS-A; for inhibition at 5 µM: 5×10^-6 M. How it is done: The SRS-A antagonist activity of the compounds of this invention is measured by the ability of the active medicament to inhibit SRS-A induced contraction of guinea pig ileum. In this test system, sections of ileum are resected from guinea pigs and placed in 5 ml. tissue baths containing a modified Tyrode's solution. One end of the tissue is fixed to a glass tissue holder, the other is connected to a force-displacement transducer and the tissue is placed under a tension of 500 mg. Isometric tissue contractions are recorded on a six channel polygraph. Baths are constantly aerated with 95% O2 -5% CO2. After a 20 minute stabilization period a concentration of the appropriate agonist which provides a contraction height of 60-80% of the maximum obtainable to that agonist (as determined from full sequential concentration-response curves in separate experiments) is added to the tissue bath and the response recorded. The procedure is repeated until reproducible responses are obtained. For most agonists, two applications in rapid succession, followed 15 minutes later by a third, is sufficient to establish reproducibility. Experimental tissues are incubated with the selected concentration of the test compounds for 15 minutes. Experimental and control tissues are subjected to 5 bath changes during the incubation interval. Changes in bath fluid during the incubation period are helpful in insuring the reproducibility of tissue responses to the agonist. The same concentration of the agonist is reapplied in the presence of the test compound and the response registered and compared with controls. Percent inhibition produced by the test compound is calculated by substracting the mean percentage change in control tissue from the mean percentage change in tissues exposed to the test compound. Additional compounds are then evaluated as long as the tissue remains reproducibly responsive to the agonist. Six tissues obtained from 6 animals are used simultaneously--3 controls and 3 experimental. […]

Regarding `O=S(=O)(N[C@@H]1C[C@H]1c1ccccc1)NS(=O)(=O)N[C@@H]1C[C@H]1c1ccccc1` (relative stereo) [Compound 1, 1,5-Di[TRANS-2-PHENYLCYCLOPROPYL]IMIDODISULFAMIDE], the inhibition at 5 µM is 17%.

In the case of `O=S(=O)(N[C@@H]1C[C@H]1c1ccc(Cl)c(Cl)c1)NS(=O)(=O)N[C@@H]1C[C@H]1c1ccc(Cl)c(Cl)c1` (relative stereo) [Compound 2, 1,5-di[trans-2-(3,4-dichlorophenyl)cyclopropyl]imidodisulfamide], the inhibition at 5 µM is 60%.

Take `O=S(=O)(N[C@@H]1CCCC[C@@H]1c1ccccc1)NS(=O)(=O)N[C@@H]1CCCC[C@@H]1c1ccccc1` (relative stereo) [Compound 3, 1,5-di[cis-2-phenylcyclohexyl]imidodisulfamide]: the inhibition at 50 µM (5×10^-5 M) worked out at 86%.

These data come from patent US4350685A, “Antiallergic imidodisulfamides” (SmithKline Corporation, priority 1981, dated 1982).
